According to ChEMBL document CHEMBL1131981, “Heterocyclic analogues of 2-aminotetralins with high affinity and selectivity for the dopamine D3 receptor” (Bioorg Med Chem Lett, 1999):

What was measured:
D(3) dopamine receptor [1] = target: T1, D(3) dopamine receptor (Homo sapiens, UniProt P35462)
Description: Tested for the ability to displace [125I]iodosulpiride from human cloned Dopamine receptor D3, expressed in CHO cells

D(3) dopamine receptor [2] = target: T1, D(3) dopamine receptor; test: Functional activity in vitro using microphysiometry at Dopamine receptor D3; Agonist; conditions: filed as agonist
D(2) dopamine receptor [3] = target: T2, D(2) dopamine receptor (Homo sapiens, UniProt P14416); test: Tested for the ability to displace [125I]iodosulpiride from human cloned Dopamine receptor D2, expressed in CHO cells.; type: cell-based
D(3) dopamine receptor [4] = target: T1, D(3) dopamine receptor; test: Tested for the functional activity in vitro using microphysiometry at Dopamine receptor D3; antagonist; conditions: filed as antagonist
D(2) dopamine receptor [5] = target: T2, D(2) dopamine receptor; test: Displacement of [125I]iodosulpiride from human Dopamine receptor D2 expressed in CHO cells; type: cell-based

T2 sequence (P14416 whole entry): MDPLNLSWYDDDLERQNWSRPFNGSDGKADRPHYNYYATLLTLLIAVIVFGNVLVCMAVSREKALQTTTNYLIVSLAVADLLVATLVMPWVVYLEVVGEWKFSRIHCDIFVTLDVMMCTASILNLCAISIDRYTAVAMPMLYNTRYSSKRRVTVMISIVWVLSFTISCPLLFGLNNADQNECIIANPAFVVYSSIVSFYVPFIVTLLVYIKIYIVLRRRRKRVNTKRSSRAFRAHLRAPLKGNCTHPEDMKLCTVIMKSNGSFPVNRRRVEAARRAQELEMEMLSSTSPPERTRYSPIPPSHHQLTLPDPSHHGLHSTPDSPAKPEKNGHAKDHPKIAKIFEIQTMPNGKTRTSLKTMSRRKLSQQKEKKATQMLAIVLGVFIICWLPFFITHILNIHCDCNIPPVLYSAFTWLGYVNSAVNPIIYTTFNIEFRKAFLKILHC
T1 sequence (P35462 whole entry): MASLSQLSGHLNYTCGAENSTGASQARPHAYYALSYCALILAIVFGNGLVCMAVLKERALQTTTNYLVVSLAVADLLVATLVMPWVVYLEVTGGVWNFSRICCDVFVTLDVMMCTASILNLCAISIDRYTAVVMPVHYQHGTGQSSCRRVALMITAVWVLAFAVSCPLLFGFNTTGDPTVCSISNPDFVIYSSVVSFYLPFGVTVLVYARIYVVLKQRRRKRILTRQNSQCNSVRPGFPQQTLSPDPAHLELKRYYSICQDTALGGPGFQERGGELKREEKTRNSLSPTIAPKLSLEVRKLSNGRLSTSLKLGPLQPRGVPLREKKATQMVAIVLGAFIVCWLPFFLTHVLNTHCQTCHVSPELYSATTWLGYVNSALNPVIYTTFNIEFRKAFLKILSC

Structure (SMILES) | Ki (D(3) dopamine receptor [1]) | Function (D(3) dopamine receptor [2]) | Ki (D(2) dopamine receptor [3]) | Function (D(3) dopamine receptor [4]) | Ki (D(2) dopamine receptor [5])
CN(CCCCNC(=O)c1ccc(-c2ccccc2)cc1)C1CCc2nc(N)ncc2C1 (stereo not given) | 10 nM | Agonist | 1580 nM | – | –
CCCN1COC[C@@H]2c3cc(O)ccc3OC[C@H]21 | 25.1 nM | – | – | – | 2510 nM
CCCN(CCCCNC(=O)c1ccc(-c2ccccc2)cc1)C1CCc2nc(C)ncc2C1 (stereo not given) | 7.94 nM | Agonist | 2510 nM | – | –
CCCN(CCCCNC(=O)c1ccc(-c2ccccc2)cc1)C1CCc2n[nH]cc2C1 (stereo not given) | 3.16 nM | Agonist | 501 nM | – | –
CCCN(CCCCNC(=O)c1ccc(-c2ccccc2)cc1)C1CCc2nc(SC)ncc2C1 (stereo not given) | 15.8 nM | – | 1260 nM | Antagonist | –
CCCNC1CCc2nc(N)sc2C1 (stereo not given) | 10 nM | – | – | – | –

More lines, in order of falling Ki (D(3) dopamine receptor [1]), values ahead:

Ki (D(3) dopamine receptor [1]) | Function (D(3) dopamine receptor [2]) | Ki (D(2) dopamine receptor [3]) | Function (D(3) dopamine receptor [4]) | Structure (SMILES) | Ki (D(2) dopamine receptor [5])
126 nM | – | 1260 nM | – | CCCN(CCCCNC(=O)c1ccc(-c2ccccc2)cc1)C1CCc2ncncc2C1 (stereo not given) | –
25.1 nM | – | 1580 nM | Antagonist | CCCN(CCCCNC(=O)c1ccc(-c2ccccc2)cc1)C1CCc2nc(N(C)C)ncc2C1 (stereo not given) | –
15.8 nM | Agonist | 2510 nM | – | CCCN(CCCCNC(=O)c1ccc(-c2ccccc2)cc1)C1CCc2nc(NC)ncc2C1 (stereo not given) | –
12.6 nM | – | 1580 nM | Antagonist | CCCN(CCCCNC(=O)c1ccc(-c2ccccc2)cc1)C1CCc2nc(C(C)(C)C)ncc2C1 (stereo not given) | –
3.16 nM | Agonist | 1580 nM | – | CCCN(CCCCNC(=O)c1ccc(-c2ccccc2)cc1)C1CCc2ncnc(OC)c2C1 (stereo not given) | –
0.794 nM | Agonist | 158 nM | – | CCCN(CCCCNC(=O)c1ccc(-c2ccccc2)cc1)C1CCc2nc(N)ncc2C1 (stereo not given) | –
0.501 nM | Agonist | 200 nM | – | CCCN(CCCCNC(=O)c1ccc(-c2ccccc2)cc1)C1CCc2nc(N)sc2C1 (stereo not given) | –
